Assay results taken from paper PMC7866087, “Evaluation of Computationally Designed Peptides against TWEAK, a Cytokine of the Tumour Necrosis Factor Ligand Family” (International Journal of Molecular Sciences, 2021).
“And” between values parts separate entries of the source, which are not always exact repeats. Identical values can stand only once.

Tested on: TWEAK-Fn14 signalling pathway, BRV5 cells
Experiment: Cell-based screening of individual peptides, gene expression microarray in TWEAK-stimulated BRV5 cells
Parameters: species or system human
Conditions: 6 h; for regulation of probe genes by individual peptides: BRV5 + TWEAK 25 ng/mL, peptides 450 µM; for BIRC2 mRNA expression (normalized to NARS2) / HSP90B1 mRNA expression (normalized to NARS2) / IL6 mRNA expression (normalized to NARS2) / JUN mRNA expression (normalized to NARS2) / MAP4K4 mRNA expression (normalized to NARS2) / MAPK14 mRNA expression (normalized to NARS2) / NFKB2 mRNA expression (normalized to NARS2) / TNFRSF12A mRNA expression (normalized to NARS2) / TRAF2 mRNA expression (normalized to NARS2) / BIRC2 expression Z-Score / HSP90B1 expression Z-Score / IL6 expression Z-Score / JUN expression Z-Score / MAP4K4 expression Z-Score / MAPK14 expression Z-Score / NFKB2 expression Z-Score / TNFRSF12A expression Z-Score / TRAF2 expression Z-Score: individual peptides, BRV5 + TWEAK; for BIRC2 mRNA expression (normalized to NARS2) / HSP90B1 mRNA expression (normalized to NARS2) / IL6 mRNA expression (normalized to NARS2) / JUN mRNA expression (normalized to NARS2) / MAP4K4 mRNA expression (normalized to NARS2) / MAPK14 mRNA expression (normalized to NARS2) / NFKB2 mRNA expression (normalized to NARS2) / TNFRSF12A mRNA expression (normalized to NARS2) / TRAF2 mRNA expression (normalized to NARS2): 450 µM; for BIRC2 expression Z-Score / HSP90B1 expression Z-Score / IL6 expression Z-Score / JUN expression Z-Score / MAP4K4 expression Z-Score / MAPK14 expression Z-Score / NFKB2 expression Z-Score / TNFRSF12A expression Z-Score / TRAF2 expression Z-Score: normalized to NARS2
Excerpt: Pool 1 and 5 were therefore deconstructed to assess the effect of individual peptides and their activity on same cell-based screening. Pools 1 and 5 were composed of peptides 45, 46, 42, 3, 49, 11, and 13; and of peptides 1, 9, 30, 35, 41, 43, 7, and 14, respectively. As before, and shown in Figure 4B, the level of expression of probe genes on TWEAK-stimulated (T) BRV5 cells is overall higher than on non-stimulated (NT) one. […] The structural model of peptides 43, 30, 35 and 49 bound to TWEAK can be seen in Figure 5 and Supplementary Materials Figures S4–S6, respectively.
Three different cell lines were used in this study: BRV5, MDA-MB 435 (435-P), and HT29. The BRV5 is a highly metastatic brain cell line, obtained in one of our laboratories by primary culture from a brain of a nude mouse inoculated with human 435-Br1 brain metastatic cells, as previously described and used as a model to test the peptides in cell cultures. […] The triple negative 435-P cell line is a useful human breast cancer model that expresses both epithelial and melanocytic markers, and was included as the parental cell from which 435-Br1 metastatic variant was initially originated (both cell lines kindly provided by Dr Fabra at IDIBELL Institute, Hospitalet de Llobregat, Spain). Finally, HT29 human colon carcinoma cells obtained from the European Type Culture Collection (ECACC 91072201) were used as a positive control of TWEAK dependent Fn14 over-expressing cells to evaluate TWEAK-Fn14 axis of brain metastatic variants.
Appropriate cell culture conditions were established as the controls needed in the expression of genes with and without peptides and with and without TWEAK activation, both as pools and individually (see Supplementary Materials Figure S2). The protocol started with the seeding of 125,000 cells/well in 500 µL of culture media supplemented with 10% fetal bovine serum (CM+FBS10%) in 24-well dishes for 24 h before removing FBS (CM-FBS). After overnight starvation in CM-FBS culture, different peptide treatment conditions (at final concentration of 450 µM) were established in the presence or absence of TWEAK (25 ng/mL final concentration) (Peprotech EC, Ltd., London, UK). Some cells were treated with peptides at a single, unique, initial dose (time 0) while other were treated with repeated doses to account for the effect cell-culture degradation. These include a repeated treatment every hour (i.e., […]), every two hours (time 0, 2, and 4) and every three hours (time 0 and 3)—see Supplementary Materials Figure S2 for diagrammatic depiction. At time 6 (after six hours) cells were lysed and RNA extracted for transcriptomic analyses (see next). Cell were culture for six hours as this was the time needed to achieve the highest upregulation of the TWEAK-Fn14 axis upon TWEAK treatment as shown in previous time-course RT-PCR experiments (see Figure 2).
RNA from cells was extracted 6 h after treatments by direct lysis on the well. The RNeasy Micro kit (Qiagen, Hilden, Germany) was used to isolate total RNA from cell lysate following manufacturer’s protocols including an additional step of digestion with DNase I (Qiagen, Hilden, Germany). Total RNA concentration was measured in a NanoDrop 1000 spectrophotometer (Thermo Scientific, Waltham, MA, USA). The RNA extracted from treated and untreated cells (see above) was used as a proxy for gene expression.
The quantitative RT-PCR was performed using Fluidigm Dynamic Array FlexSix array with the specific primers for gene expression (Delta Genes Assays, Wet lab tested on Dynamic Array IFC) designed to RefSeq for detection by pPCR EvaGreen assay (Dynamic Array FlexSix, Fluidigm Corporation). Each Flex Six IFC has a total of six independent partitions. Each partition has a 12 × 12 format (12 assay inlets and 12 sample inlets) and will be run independently as a separate experimental run. […]

| Substance | BIRC2 mRNA expression (normalized to NARS2) (mean of replicate columns) | HSP90B1 mRNA expression (normalized to NARS2) (mean of replicate columns) | IL6 mRNA expression (normalized to NARS2) (mean of replicate columns) | JUN mRNA expression (normalized to NARS2) (mean of replicate columns) | MAP4K4 mRNA expression (normalized to NARS2) (mean of replicate columns) | MAPK14 mRNA expression (normalized to NARS2) (mean of replicate columns) | NFKB2 mRNA expression (normalized to NARS2) (mean of replicate columns) | TNFRSF12A mRNA expression (normalized to NARS2) (mean of replicate columns) | TRAF2 mRNA expression (normalized to NARS2) (mean of replicate columns) | BIRC2 mRNA expression (normalized to NARS2) (replicate column 1) | HSP90B1 mRNA expression (normalized to NARS2) (replicate column 1) | IL6 mRNA expression (normalized to NARS2) (replicate column 1) | JUN mRNA expression (normalized to NARS2) (replicate column 1) | MAP4K4 mRNA expression (normalized to NARS2) (replicate column 1) | MAPK14 mRNA expression (normalized to NARS2) (replicate column 1) | NFKB2 mRNA expression (normalized to NARS2) (replicate column 1) | TNFRSF12A mRNA expression (normalized to NARS2) (replicate column 1) | TRAF2 mRNA expression (normalized to NARS2) (replicate column 1) | BIRC2 mRNA expression (normalized to NARS2) (replicate column 2) | HSP90B1 mRNA expression (normalized to NARS2) (replicate column 2) | also measured |
| --- | --- | --- | --- | --- | --- | --- | --- | --- | --- | --- | --- | --- | --- | --- | --- | --- | --- | --- | --- | --- | --- |
| 11: SGVAYQETT [Peptide 11] | 0.6438 | 2.54 | 0.001558 | 0.1006 | 0.1986 | 0.2184 | 0.047 | 0.01869 | 0.01037 | 0.6157 | 2.376 | 0.001178 | 0.09818 | 0.2001 | 0.2179 | 0.04834 | 0.01871 | 0.01036 | 0.6719 | 2.704 | regulation of probe genes by individual peptides: induced a higher level of expression of the gene; IL6 mRNA expression (normalized to NARS2) (replicate column 2): 0.001938; JUN mRNA expression (normalized to NARS2) (replicate column 2): 0.1029; MAP4K4 mRNA expression (normalized to NARS2) (replicate column 2): 0.1972; MAPK14 mRNA expression (normalized to NARS2) (replicate column 2): 0.219; NFKB2 mRNA expression (normalized to NARS2) (replicate column 2): 0.04567; TNFRSF12A mRNA expression (normalized to NARS2) (replicate column 2): 0.01867; TRAF2 mRNA expression (normalized to NARS2) (replicate column 2): 0.01038; BIRC2 expression Z-Score (listed as P11): 0.5906; HSP90B1 expression Z-Score (listed as P11): 0.5337; IL6 expression Z-Score (listed as P11): -0.2862; JUN expression Z-Score (listed as P11): 0.0366 and 0.03662; MAP4K4 expression Z-Score (listed as P11): 0.3403; MAPK14 expression Z-Score (listed as P11): 0.3151; NFKB2 expression Z-Score (listed as P11): 0.622; TNFRSF12A expression Z-Score (listed as P11): -0.2085; TRAF2 expression Z-Score (listed as P11): -0.4411 |
| 13: YSGYFGGFY [Peptide 13] | 0.4307 | 2.183 | 0.005226 | 0.4257 | 0.2531 | 0.2388 | 0.05228 | 0.02853 | 0.02474 | 0.4177 | 2.2352 | 0.005457 | 0.419 | 0.2593 | 0.2431 | 0.05087 | 0.02856 | 0.02503 | 0.4436 | 2.131 | regulation of probe genes by individual peptides: to some extent, 13 induced a higher level of expression of the gene; IL6 mRNA expression (normalized to NARS2) (replicate column 2): 0.004995; JUN mRNA expression (normalized to NARS2) (replicate column 2): 0.4325; MAP4K4 mRNA expression (normalized to NARS2) (replicate column 2): 0.2468; MAPK14 mRNA expression (normalized to NARS2) (replicate column 2): 0.2344; NFKB2 mRNA expression (normalized to NARS2) (replicate column 2): 0.05368; TNFRSF12A mRNA expression (normalized to NARS2) (replicate column 2): 0.0285; TRAF2 mRNA expression (normalized to NARS2) (replicate column 2): 0.02446; BIRC2 expression Z-Score (listed as P13): -0.8852; HSP90B1 expression Z-Score (listed as P13): -0.101; IL6 expression Z-Score (listed as P13): 2.8881 and 2.888; JUN expression Z-Score (listed as P13): 3.7769 and 3.777; MAP4K4 expression Z-Score (listed as P13): 1.699; MAPK14 expression Z-Score (listed as P13): 0.6701; NFKB2 expression Z-Score (listed as P13): 1.124; TNFRSF12A expression Z-Score (listed as P13): 0.91; TRAF2 expression Z-Score (listed as P13): 0.255 |
| 46: TGYAENV [Peptide 46] | 0.5415 | 2.314 | 0.00187 | 0.08801 | 0.2105 | 0.2302 | 0.05417 | 0.01829 | 0.01616 | 0.5372 | 2.32 | 0.00168 | 0.08305 | 0.1965 | 0.2456 | 0.05593 | 0.0189 | 0.01641 | 0.5458 | 2.3087 | IL6 mRNA expression (normalized to NARS2) (replicate column 2): 0.002059; JUN mRNA expression (normalized to NARS2) (replicate column 2): 0.09296; MAP4K4 mRNA expression (normalized to NARS2) (replicate column 2): 0.2245; MAPK14 mRNA expression (normalized to NARS2) (replicate column 2): 0.2147; NFKB2 mRNA expression (normalized to NARS2) (replicate column 2): 0.05241; TNFRSF12A mRNA expression (normalized to NARS2) (replicate column 2): 0.01767; TRAF2 mRNA expression (normalized to NARS2) (replicate column 2): 0.01592; BIRC2 expression Z-Score (listed as P46): -0.118; HSP90B1 expression Z-Score (listed as P46): 0.1322; IL6 expression Z-Score (listed as P46): -0.0166 and -0.01658; JUN expression Z-Score (listed as P46): -0.1078; MAP4K4 expression Z-Score (listed as P46): 0.6365; MAPK14 expression Z-Score (listed as P46): 0.5199; NFKB2 expression Z-Score (listed as P46): 1.3042 and 1.304; TNFRSF12A expression Z-Score (listed as P46): -0.2543; TRAF2 expression Z-Score (listed as P46): -0.1604 |
